Each compound was assayed against T1, full-length recombinant human NEK7 (Homo sapiens, UniProt Q8TDX7) (assay: NEK7 Enzymatic Assay). Details: casein substrate, [33P]-ATP, 2 hours at room temperature.
T1 construct: full-length recombinant human NEK7; GST (N); purchased SignalChem Nab 09-10G; host or cells: Sf9 insect cells (baculovirus)
Assay type: biochemical
Method: Casein substrate (from bovine milk, hydrolyzed and partially dephosphorylated mixture of α, β and κ caseins, obtained from Sigma Aldrich, catalogue #C4765, diluted in distilled water to a final concentration of 1 mg/mL) and full-length recombinant human NEK7 (expressed by baculovirus in Sf9 insect cells using a N-terminal GST tag, obtained from SignalChem, catalogue #Nab 09-10G, 0.1 μg/μL) were mixed in assay buffer (20 mM Hepes pH 7.5, 10 mM MgCl2, 1 mM EGTA, 0.02% Brij35, 0.02 mg/ml BSA, 0.1 mM Na3VO4, 2 mM DTT, 1% DMSO). Compounds of interest (serial 3-fold dilution in DMSO from 10 μM to 0.5 nM) or vehicle (1% DMSO) were dispensed into the kinase reaction mixture by Acoustic technology (Echo550; nanoliter range). After incubation at room temperature for 20 minutes, the kinase reaction was initiated by addition of [^33P]-ATP (specific activity 10 μCi/μl) and the mixture was incubated at room temperature for 2 hours. The reaction was then stopped by spotting the reaction mixture on strips of phosphocellulose P81 paper. Following washing, the radioactivity of the P81 paper was measured and kinase activity data were expressed as the percent remaining kinase activity in test samples compared to vehicle reactions. IC50 values and curve fits were obtained using Prism (GraphPad Software).

T1 sequence (Q8TDX7 whole entry): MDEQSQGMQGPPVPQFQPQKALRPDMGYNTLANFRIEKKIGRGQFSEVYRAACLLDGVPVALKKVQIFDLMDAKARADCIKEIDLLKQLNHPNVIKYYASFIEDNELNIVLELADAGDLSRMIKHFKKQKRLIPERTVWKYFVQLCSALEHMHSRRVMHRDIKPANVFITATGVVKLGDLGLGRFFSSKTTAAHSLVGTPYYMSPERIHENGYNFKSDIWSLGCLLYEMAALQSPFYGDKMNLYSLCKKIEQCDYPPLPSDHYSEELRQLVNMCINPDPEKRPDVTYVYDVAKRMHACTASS

With Nc1ncnc2c1c(-c1ccc(NC(=O)Nc3cc(C4(C(F)(F)F)CC4)on3)c(F)c1)nn2C1CC(O)C1 (stereo not shown) [Example 60, 1-(4-(4-amino-1-(3-hydroxycyclobutyl)-1H-pyrazolo[3,4-d]pyrimidin-3-yl)-2-fluorophenyl)-3-(5-(1-(trifluoromethyl)cyclopropyl)isoxazol-3-yl)urea] as the compound, how does the IC50 read?
Its IC50 is under 150 nM.

Nc1ncnc2c1c(-c1ccc(NC(=O)Nc3cc(C4(C(F)(F)F)CC4)no3)c(F)c1)nn2C1CC(O)C1 (stereo not shown) [Example 46, 1-(4-(4-amino-1-(3-hydroxycyclobutyl)-1H-pyrazolo[3,4-d]pyrimidin-3-yl)-2-fluorophenyl)-3-(3-(1-(trifluoromethyl)cyclopropyl)isoxazol-5-yl)urea] was tested. Which IC50 did it give?
Its IC50 is under 150 nM.

How did the IC50 turn out when CC(C)(C)c1nsc(NC(=O)Nc2ccc(-c3nn(C4CC4)c4ncnc(N)c34)cc2F)n1 [Example 37, 1-(4-(4-amino-1-cyclopropyl-1H-pyrazolo[3,4-d]pyrimidin-3-yl)-2-fluorophenyl)-3-(3-(tert-butyl)-1,2,4-thiadiazol-5-yl)urea] was run?
Its IC50 is over 501 nM.

For Nc1ncnc2c1c(-c1cc(F)c(NC(=O)Nc3cc(C4(C(F)(F)F)CC4)no3)cc1F)nn2C1CC1 [Example 50, 1-(4-(4-amino-1-cyclopropyl-1H-pyrazolo[3,4-d]pyrimidin-3-yl)-2,5-difluorophenyl)-3-(3-(1-(trifluoromethyl)cyclopropyl)isoxazol-5-yl)urea], which IC50 is on record?
Its IC50 is 301 to 500 nM.

Which IC50 does the source give for CC(C)(O)Cn1nc(-c2ccc(NC(=O)Nc3cc(C4(C(F)(F)F)CC4)no3)c(F)c2)c2c(N)ncnc21 [Example 66, 1-(4-(4-amino-1-(2-hydroxy-2-methylpropyl)-1H-pyrazolo[3,4-d]pyrimidin-3-yl)-2-fluorophenyl)-3-(3-(1-(trifluoromethyl)cyclopropyl)isoxazol-5-yl)urea] here?
Its IC50 is 151 to 300 nM.

With CCC(CC)c1cc(NC(=O)Nc2ccc(-c3nn(C4CC4)c4ncnc(N)c34)cc2F)on1 [Example 40, 1-(4-(4-amino-1-cyclopropyl-1H-pyrazolo[3,4-d]pyrimidin-3-yl)-2-fluorophenyl)-3-(3-(pentan-3-yl)isoxazol-5-yl)urea] as the compound, how does the IC50 read?
The IC50 was 301 to 500 nM.

With Cc1cc(-c2nn(C3CC3)c3ncnc(N)c23)ccc1NC(=O)Nc1cc(C2(C(F)(F)F)CC2)on1 [Example 59, 1-(4-(4-amino-1-cyclopropyl-1H-pyrazolo[3,4-d]pyrimidin-3-yl)-2-methylphenyl)-3-(5-(1-(trifluoromethyl)cyclopropyl)isoxazol-3-yl)urea] as the compound, how does the IC50 read?
Its IC50 is over 501 nM.

COCCn1nc(-c2ccc(NC(=O)Nc3cc(C4(C(F)(F)F)CC4)no3)c(F)c2)c2c(N)ncnc21 [Example 57, 1-(4-(4-amino-1-(2-methoxyethyl)-1H-pyrazolo[3,4-d]pyrimidin-3-yl)-2-fluorophenyl)-3-(3-(1-(trifluoromethyl)cyclopropyl)isoxazol-5-yl)urea] was tested. Which IC50 did it give?
Its IC50 is 151 to 300 nM.

For CC(C)(C)c1cc(NC(=O)Nc2ccc(-c3nn(C4CC(F)(F)C4)c4ncnc(N)c34)cc2F)on1 [Example 16, 1-(4-(4-amino-1-(3,3-difluorocyclobutyl)-1H-pyrazolo[3,4-d]pyrimidin-3-yl)-2-fluorophenyl)-3-(3-(tert-butyl)isoxazol-5-yl)urea], which IC50 is on record?
Its IC50 is over 501 nM.

For Nc1ncnc2c1c(-c1cc(F)c(NC(=O)Nc3cc(C4(C(F)(F)F)CC4)on3)cc1F)nn2C1CC1 [Example 62, 1-(4-(4-amino-1-cyclopropyl-1H-pyrazolo[3,4-d]pyrimidin-3-yl)-2,5-difluorophenyl)-3-(5-(1-(trifluoromethyl)cyclopropyl)isoxazol-3-yl)urea], which IC50 is on record?
The IC50 was 301 to 500 nM.

With Cn1nc(-c2ccc(NC(=O)Nc3cc(C(C)(C)C)no3)c(Cl)c2)c2c(N)ncnc21 [Example 28, 1-(4-(4-amino-1-methyl-1H-pyrazolo[3,4-d]pyrimidin-3-yl)-2-chlorophenyl)-3-(3-(tert-butyl)isoxazol-5-yl)urea] as the compound, how does the IC50 read?
The IC50 was over 501 nM.

Which IC50 does the source give for CC(C)(C)c1cc(NC(=O)Nc2ccc(-c3nn(C4CC4)c4ccnc(N)c34)cc2)on1 [Example 31, 1-(4-(4-amino-1-cyclopropyl-1H-pyrazolo[4,3-c]pyridin-3-yl)phenyl)-3-(3-(tert-butyl)isoxazol-5-yl)urea] here?
The IC50 was over 501 nM.

Which IC50 does the source give for CC(C)(C)n1cnc(NC(=O)Nc2ccc(-c3nn(C4CC4)c4ncnc(N)c34)cc2F)n1 [Example 38, 1-(4-(4-amino-1-cyclopropyl-1H-pyrazolo[3,4-d]pyrimidin-3-yl)-2-fluorophenyl)-3-(1-(tert-butyl)-1H-1,2,4-triazol-3-yl)urea] here?
The IC50 was over 501 nM.

Nc1nccc2c1c(-c1ccc(NC(=O)Nc3cc(C4(C(F)(F)F)CC4)no3)nc1)nn2C1CC1 [Example 54, 1-(5-(4-amino-1-cyclopropyl-1H-pyrazolo[4,3-c]pyridin-3-yl)pyridin-2-yl)-3-(3-(1-(trifluoromethyl)cyclopropyl)isoxazol-5-yl)urea] was tested. Which IC50 did it give?
The IC50 was 151 to 300 nM.

For COCCn1nc(-c2ccc(NC(=O)Nc3cc(C4(C(F)(F)F)CC4)on3)c(F)c2)c2c(N)ncnc21 [Example 58, 1-(4-(4-amino-1-(2-methoxyethyl)-1H-pyrazolo[3,4-d]pyrimidin-3-yl)-2-fluorophenyl)-3-(5-(1-(trifluoromethyl)cyclopropyl)isoxazol-3-yl)urea], which IC50 is on record?
The IC50 was 151 to 300 nM.

With Nc1ncnc2c1c(-c1ccc(NC(=O)Nc3cc(C4(C(F)(F)F)CC4)on3)nc1)nn2C1CC1 [Example 64, 1-(5-(4-amino-1-cyclopropyl-1H-pyrazolo[3,4-d]pyrimidin-3-yl)pyridin-2-yl)-3-(5-(1-(trifluoromethyl)cyclopropyl)isoxazol-3-yl)urea] as the compound, how does the IC50 read?
Its IC50 is 151 to 300 nM.

For CC(C)c1cc(NC(=O)Nc2ccc(-c3nn(C4CC4)c4ncnc(N)c34)cc2F)on1 [Example 41, 1-(4-(4-amino-1-cyclopropyl-1H-pyrazolo[3,4-d]pyrimidin-3-yl)-2-fluorophenyl)-3-(3-isopropylisoxazol-5-yl)urea], which IC50 is on record?
The IC50 was under 150 nM.

How did the IC50 turn out when CC(C)n1nc(-c2ccc(NC(=O)Nc3cc(C(C)(C)C)no3)c(Cl)c2)c2c(N)ncnc21 [Example 6, 1-(4-(4-amino-1-isopropyl-1H-pyrazolo[3,4-d]pyrimidin-3-yl)-2-chlorophenyl)-3-(3-(tert-butyl)isoxazol-5-yl)urea] was run?
The IC50 was over 501 nM.

With CC(C)(C)c1cc(NC(=O)Nc2ccc(-c3nn(C4CC4)c4ncnc(N)c34)cc2F)sn1 [Example 35, 1-(4-(4-amino-1-cyclopropyl-1H-pyrazolo[3,4-d]pyrimidin-3-yl)-2-fluorophenyl)-3-(3-(tert-butyl)isothiazol-5-yl)urea] as the compound, how does the IC50 read?
The IC50 was over 501 nM.

For Nc1ncnc2c1c(-c1ccc(NC(=O)Nc3cc(C4(C(F)(F)F)CC4)no3)c(F)c1)nn2CCO [Example 55, 1-(4-(4-amino-1-(2-hydroxyethyl)-1H-pyrazolo[3,4-d]pyrimidin-3-yl)-2-fluorophenyl)-3-(3-(1-(trifluoromethyl)cyclopropyl)isoxazol-5-yl)urea], which IC50 is on record?
Its IC50 is under 150 nM.

For CN1CC(n2nc(-c3ccc(NC(=O)Nc4cc(C5(C(F)(F)F)CC5)no4)c(F)c3)c3c(N)ncnc32)C1 [Example 49, 1-(4-(4-amino-1-(1-methylazetidin-3-yl)-1H-pyrazolo[3,4-d]pyrimidin-3-yl)-2-fluorophenyl)-3-(3-(1-(trifluoromethyl)cyclopropyl)isoxazol-5-yl)urea], which IC50 is on record?
The IC50 was over 501 nM.

With CC(C)(C)c1csc(NC(=O)Nc2ccc(-c3nn(C4CC4)c4ncnc(N)c34)cc2F)n1 [Example 34, 1-(4-(4-amino-1-cyclopropyl-1H-pyrazolo[3,4-d]pyrimidin-3-yl)-2-fluorophenyl)-3-(4-(tert-butyl)thiazol-2-yl)urea] as the compound, how does the IC50 read?
Its IC50 is over 501 nM.

Source: patent US20230203045A1, “INHIBITORS OF NEK7 KINASE” (Halia Therapeutics, Inc., priority 2020, published 2023)
